In patent US11498899B2, “Nitrone herbicides” (FMC Corporation, priority 2016, dated 2022):

Columns and labels:
[1] = system: blackgrass (Alopecurus myosuroides); assay: Test A postemergence, visual injury rating 0-100; assay type: in vivo; conditions: 0 to 100 scale
[2] = system: wheat (Triticum aestivum); assay: Test A postemergence, visual injury rating 0-100; assay type: in vivo; conditions: 0 to 100 scale
[3] = system: galium (catchweed bedstraw, Galium aparine); assay: Test A postemergence, visual injury rating 0-100; assay type: in vivo; conditions: 0 to 100 scale
[4] = system: corn (Zea mays); assay: Test A postemergence, visual injury rating 0-100; assay type: in vivo; conditions: 0 to 100 scale
[5] = system: foxtail, green (green foxtail, Setaria viridis); assay: Test A postemergence, visual injury rating 0-100; assay type: in vivo; conditions: 0 to 100 scale
[6] = system: ryegrass, Italian (Italian ryegrass, Lolium multiflorum); assay: Test A postemergence, visual injury rating 0-100; assay type: in vivo; conditions: 0 to 100 scale
[7] = system: pigweed (Amaranthus retroflexus); assay: Test A postemergence, visual injury rating 0-100; assay type: in vivo; conditions: 0 to 100 scale
[8] = system: ragweed (common ragweed, Ambrosia elatior); assay: Test A postemergence, visual injury rating 0-100; assay type: in vivo; conditions: 0 to 100 scale
[9] = system: barnyardgrass (Echinochloa crus-galli); assay: Test A postemergence, visual injury rating 0-100; assay type: in vivo; conditions: 0 to 100 scale
[10] = system: kochia (Kochia scoparia); assay: Test A postemergence, visual injury rating 0-100; assay type: in vivo; conditions: 0 to 100 scale
[11] = system: ducksalad (Heteranthera limosa); assay: Test B flooded paddy test, visual rating 0-100; conditions: Flood, 250 g ai/ha, applied to paddy water, rated after 13 to 15 days
[12] = system: barnyardgrass (Echinochloa crus-galli); assay: Test B flooded paddy test, visual rating 0-100; conditions: Flood, 250 g ai/ha, applied to paddy water, rated after 13 to 15 days
[13] = system: rice (Oryza sativa); assay: Test B flooded paddy test, visual rating 0-100 (0 no effect, 100 complete control); conditions: Flood, 250 g ai/ha, applied to paddy water, rated after 13 to 15 days
[14] = system: barnyardgrass (Echinochloa crus-galli); assay: Test A preemergence, visual injury rating 0-100 (0 no effect, 100 complete control); assay type: in vivo; conditions: for Barnyardgrass plant response rating (0 to 100 scale): 125 g ai/ha; for Barnyardgrass plant response rating: 500 g ai/ha, 0 to 100 scale
[15] = system: foxtail, green (green foxtail, Setaria viridis); assay: Test A preemergence, visual injury rating 0-100; assay type: in vivo; conditions: for Foxtail, Green plant response rating: 0 to 100 scale
[16] = system: ryegrass, Italian (Italian ryegrass, Lolium multiflorum); assay: Test A preemergence, visual injury rating 0-100; assay type: in vivo; conditions: for Ryegrass, Italian plant response rating: 0 to 100 scale
[17] = system: pigweed (Amaranthus retroflexus); assay: Test A preemergence, visual injury rating 0-100; assay type: in vivo; conditions: for Pigweed plant response rating: 0 to 100 scale
[18] = system: ragweed (common ragweed, Ambrosia elatior); assay: Test A preemergence, visual injury rating 0-100; assay type: in vivo; conditions: for Ragweed plant response rating: 0 to 100 scale
[19] = system: kochia (Kochia scoparia); assay: Test A preemergence, visual injury rating 0-100; assay type: in vivo; conditions: for Kochia plant response rating: 0 to 100 scale

Structure (SMILES)	Blackgrass plant response rating ([1]; 125 g ai/ha)	Blackgrass plant response rating ([1]; 500 g ai/ha)	Wheat plant response rating ([2]; 125 g ai/ha)	Wheat plant response rating ([2]; 500 g ai/ha)	Galium plant response rating ([3]; 125 g ai/ha)	Galium plant response rating ([3]; 500 g ai/ha)	Corn plant response rating ([4]; 125 g ai/ha)	Corn plant response rating ([4]; 500 g ai/ha)	Foxtail, Green plant response rating ([5]; 125 g ai/ha)	Foxtail, Green plant response rating ([5]; 500 g ai/ha)	Ryegrass, Italian plant response rating ([6]; 125 g ai/ha)	Ryegrass, Italian plant response rating ([6]; 500 g ai/ha)	Pigweed plant response rating ([7]; 125 g ai/ha)	Pigweed plant response rating ([7]; 500 g ai/ha)	Ragweed plant response rating ([8]; 125 g ai/ha)	Ragweed plant response rating ([8]; 500 g ai/ha)	Barnyardgrass plant response rating ([9]; 125 g ai/ha)	Barnyardgrass plant response rating ([9]; 500 g ai/ha)	Kochia plant response rating ([10]; 125 g ai/ha)	Kochia plant response rating ([10]; 500 g ai/ha)	further results
CC1=[N+]([O-])C(C(=O)Nc2cccc(F)c2F)C(c2ccccc2F)C1 (racemic) [Compound 21]	0	20	0	0	0	0	0	20	0	20	0	0	0	0	0	0	0	50	0	0	Ducksalad plant response rating (0 to 100 scale) [11]: 80; Barnyardgrass plant response rating (0 to 100 scale) [12]: 40; Rice plant response rating (0 to 100 scale) [13]: 0; Barnyardgrass plant response rating (0 to 100 scale) [14]: 10; Barnyardgrass plant response rating [14]: 90; Foxtail, Green plant response rating (0 to 100 scale) ([15]; 125 g ai/ha): 20; Foxtail, Green plant response rating ([15]; 500 g ai/ha): 90; Ryegrass, Italian plant response rating (0 to 100 scale) ([16]; 125 g ai/ha): 0; Ryegrass, Italian plant response rating ([16]; 500 g ai/ha): 0; Pigweed plant response rating (0 to 100 scale) ([17]; 125 g ai/ha): 0; Pigweed plant response rating ([17]; 500 g ai/ha): 0; Ragweed plant response rating (0 to 100 scale) ([18]; 125 g ai/ha): 0; Ragweed plant response rating ([18]; 500 g ai/ha): 0; Kochia plant response rating (0 to 100 scale) ([19]; 125 g ai/ha): 0; Kochia plant response rating ([19]; 500 g ai/ha): 40
CC1=[N+]([O-])C(C(=O)Nc2cccc(C#N)c2F)C(c2ccc(C(F)(F)F)cc2)C1 (racemic) [Compound 28]	0	40	0	0	70	70	0	0	30	90	0	20	0	70	0	70	20	90	0	20	Ducksalad plant response rating (0 to 100 scale) [11]: 0; Barnyardgrass plant response rating (0 to 100 scale) [12]: 30; Rice plant response rating (0 to 100 scale) [13]: 0; Barnyardgrass plant response rating (0 to 100 scale) [14]: 80; Barnyardgrass plant response rating [14]: 100; Foxtail, Green plant response rating (0 to 100 scale) ([15]; 125 g ai/ha): 90; Foxtail, Green plant response rating ([15]; 500 g ai/ha): 100; Ryegrass, Italian plant response rating (0 to 100 scale) ([16]; 125 g ai/ha): 20; Ryegrass, Italian plant response rating ([16]; 500 g ai/ha): 20; Pigweed plant response rating (0 to 100 scale) ([17]; 125 g ai/ha): 90; Pigweed plant response rating ([17]; 500 g ai/ha): 100; Ragweed plant response rating (0 to 100 scale) ([18]; 125 g ai/ha): 80; Ragweed plant response rating ([18]; 500 g ai/ha): 100; Kochia plant response rating (0 to 100 scale) ([19]; 125 g ai/ha): 0; Kochia plant response rating ([19]; 500 g ai/ha): 70
CSc1ccccc1NC(=O)C1C(c2ccc(C(F)(F)F)cc2)CC(C)=[N+]1[O-] (racemic) [Compound 29]	20	30	0	0	40	60	0	0	20	50	0	0	10	30	0	60	10	30	0	0	Ducksalad plant response rating (0 to 100 scale) [11]: 0; Barnyardgrass plant response rating (0 to 100 scale) [12]: 0; Rice plant response rating (0 to 100 scale) [13]: 0; Barnyardgrass plant response rating (0 to 100 scale) [14]: 0; Barnyardgrass plant response rating [14]: 80; Foxtail, Green plant response rating (0 to 100 scale) ([15]; 125 g ai/ha): 20; Foxtail, Green plant response rating ([15]; 500 g ai/ha): 100; Ryegrass, Italian plant response rating (0 to 100 scale) ([16]; 125 g ai/ha): 0; Ryegrass, Italian plant response rating ([16]; 500 g ai/ha): 20; Pigweed plant response rating (0 to 100 scale) ([17]; 125 g ai/ha): 10; Pigweed plant response rating ([17]; 500 g ai/ha): 90; Ragweed plant response rating (0 to 100 scale) ([18]; 125 g ai/ha): 20; Ragweed plant response rating ([18]; 500 g ai/ha): 100; Kochia plant response rating (0 to 100 scale) ([19]; 125 g ai/ha): 0; Kochia plant response rating ([19]; 500 g ai/ha): 20
CC1=[N+]([O-])C(C(=O)Nc2ccccc2C#N)C(c2ccc(C(F)(F)F)cc2)C1 (racemic) [Compound 32]	0	20	0	0	70	80	10	50	20	50	0	0	0	20	0	20	20	40	0	20	Ducksalad plant response rating (0 to 100 scale) [11]: 0; Barnyardgrass plant response rating (0 to 100 scale) [12]: 0; Rice plant response rating (0 to 100 scale) [13]: 0; Barnyardgrass plant response rating (0 to 100 scale) [14]: 0; Barnyardgrass plant response rating [14]: 100; Foxtail, Green plant response rating (0 to 100 scale) ([15]; 125 g ai/ha): 10; Foxtail, Green plant response rating (0 to 100 scale) ([15]; 500 g ai/ha): 100; Ryegrass, Italian plant response rating (0 to 100 scale) ([16]; 125 g ai/ha): 10; Ryegrass, Italian plant response rating (0 to 100 scale) ([16]; 500 g ai/ha): 10; Pigweed plant response rating (0 to 100 scale) ([17]; 125 g ai/ha): 0; Pigweed plant response rating (0 to 100 scale) ([17]; 500 g ai/ha): 80; Ragweed plant response rating (0 to 100 scale) ([18]; 125 g ai/ha): 70; Ragweed plant response rating (0 to 100 scale) ([18]; 500 g ai/ha): 100; Kochia plant response rating (0 to 100 scale) ([19]; 125 g ai/ha): 0; Kochia plant response rating (0 to 100 scale) ([19]; 500 g ai/ha): 70
